Measured values: patent US10967069B2, “Bio-orthogonal drug activation” (TAGWORKS PHARMACEUTICALS B.V., priority 2011, dated 2021)
Like-named read-outs stand apart in the source and are kept apart here. Marks after values point to notes of the source that are not given here.

Tests used:
[1] = Reactivity of tetrazines towards trans-cyclooct-4-ene-1-ol (axial isomer), competition experiment; conditions: reference tetrazine 5; acetonitrile/water
Method: A competition experiment was performed to determine the reactivity ratio of a specific tetrazine and 3-(5-acetamido-2-pyridyl)-6-(2-pyridyl)-1,2,4,5-tetrazine (5) (that was chosen as the reference tetrazine), in the inverse-electron demand Diels-Alder reaction with trans-cyclooct-4-ene-1-ol (“minor” isomer with OH in axial position, see: Whitham et al. J. Chem. Soc. (C), 1971, 883-896)).
To acetonitrile (0.100 mL) was added 5 μL of a solution of the specific tetrazine in DMSO (25 mM) and 5 μL of a solution of the reference tetrazine in DMSO (25 mM). This mixture was diluted with water (0.9 mL), and the absolute amounts of both tetrazines was determined by HPLC-MS/PDA analysis. Subsequently, a solution of trans-cyclooct-4-ene-1-ol (axial isomer) in DMSO (25 μL 2.5 mM) was slowly added, and the mixture was stirred for 5 min. Again, the absolute amounts of both tetrazines was determined by HPLC-MS/PDA analysis, and conversions for both tetrazines was calculated. From these conversions, the reactivity ratio (R=k2,TCO/k2,Ref) of both tetrazines was calculated using the mathematical procedure from Ingold and Shaw (J. Chem. Soc., 1927, 2918-2926).

[2] = as above; conditions: values marked *: 50:50 mixture of PBS and acetonitrile; reference tetrazine 5
[3] = Second-order rate constant of trans-cyclooctene derivatives in inverse-electron demand Diels-Alder reaction (UV-visible spectroscopy); conditions: UV-visible spectroscopy in acetonitrile at 20° C.
Method: The kinetics of the inverse-electron demand Diels-Alder reaction of a trans-cyclooctene derivative with 3-(5-acetamido-2-pyridyl)-6-(2-pyridyl)-1,2,4,5-tetrazine (5), performed in acetonitrile at 20° C., was determined using UV-visible spectroscopy. A cuvette was filled with acetonitrile (3 mL) and equilibrated at 20° C. 3-(5-Acetamido-2-pyridyl)-6-(2-pyridyl)-1,2,4,5-tetrazine (5, 2.50×10^−7 mol) was added, followed by the trans-cyclooctene derivative (2.50×10^−7 mol). The decay of the absorption at λ=540 nm was monitored, and from this curve the second-order rate constant, k2, was determined assuming second order rate kinetics.

[4] = Reactivity of trans-cyclooctene derivatives, competition experiment; conditions: reference trans-cyclooct-4-ene-1-ol (axial isomer)
Method: A competition experiment was performed to determine the reactivity ratio of a specific trans-cyclooctene derivative and trans-cyclooct-4-ene-1-ol (axial isomer) (that was chosen as the reference trans-cyclooctene), in the inverse-electron demand Diels-Alder reaction with bis(2-pyridyl)-1,2,4,5-tetrazine (2).
This mixture was diluted with water (0.45 mL). Subsequently, a solution of bis(2-pyridyl)-1,2,4,5-tetrazine (2, 6.25×10^−8 mol) in a mixture of acetonitrile (0.05 mL) and water (0.45 mL) was slowly added while stirring vigorously. After addition, the mixture was stirred for an additional 5 min. The conversion of both trans-cyclooctene derivatives was determined by HPLC-MS/PDA analysis, and from these conversions, the reactivity ratio (R=k2,TCO/k2,Ref) of the specific trans-cyclooctene derivative was calculated using the mathematical procedure from Ingold and Shaw (J. Chem. Soc., 1927, 2918-2926).

[5] = Activation of model prodrugs: reaction with 1,2,4,5-tetrazines and elimination of the model drug (HPLC-MS); conditions: for release of 3,5-dimethylaniline: 20 hr
[6] = Stability of trans-cyclooctene derivatives in PBS (HPLC-MS); type: physicochemical; conditions: PBS buffer, 20° C., in the dark, estimation
Method: 10 μL of a solution of the specific trans-cyclooctene derivative in dioxane (25 mM) was diluted with PBS buffer (3 mL), and this solution was stored at 20° C. in the dark. The fate of the TCO compound was monitored by HPLC-MS analysis, and an estimation of the half-life time was made.

[7] = Hydrolytic stability tests of tetrazines (UV, decrease of absorption at 525 nm); type: physicochemical; conditions: PBS buffer, 20° C.
From the text: This solution was filtered and, the decrease of the absorption band at 525 nm was monitored using UV spectroscopy.

[8] = system: A431 squamous carcinoma cells; experiment: Cell proliferation assay (MTT)
Method: The cells were plated in 96-well plates (Nunc) at a 2500 cells/well density 24 hr prior to the experiment. Doxorubicin (Dox) and the prodrug minor-38 (1 mM in DMSO) and the tetrazine 7 (10 mM in PBS) were serially diluted in pre-warmed culture medium immediately before the experiment and added to the wells (200 μl final volume per well). The prodrug was either added alone or in combination with 10 μM or 1.5 mol eq. tetrazine 7 (with respect to the prodrug). After 72 hr incubation at 37° C., cell proliferation was assessed by an MTT assay. Briefly, methylthiazolyldiphenyltetrazolium bromide (MTT) was dissolved in PBS at 5 mg/ml, filtered through 0.22 μm and 25 μl was added to each well. After 120 min incubation at 37° C., the medium was gently aspirated. The formed formazan crystals were dissolved in 100 μl DMSO and the absorbance was measured with a plate reader (BMG Labtech) at 560 nm.

[9] = Method: (§1) 3-(2-Pyridyl)-6-methyl-1,2,4,5-tetrazine (7, 4.33×10^−6 g; 2.50×10^−8 mol) was dissolved in PBS buffer (1 mL) (c=25 μM). Next, minor-(E)-cyclooct-2-en-1-yl doxorubicin carbamate (38, the isomer with the carbamate in the axial position; 1.74×10^−5 g; 2.50×10^−8 mol) was added. The solution was stirred at 20° C. for 4 hr.
as §1, with “Next, major-(E)-cyclooct-2-en-1-yl” for “Next, minor-(E)-cyclooct-2-en-1-yl”, “the equatorial” for “the axial”, “for 16” for “for 4”
3,6-Bis(2-aminophenyl)-1,2,4,5-tetrazine (9, 2.64×10^−6 g; 1.00×10^−8 mol) was dissolved in acetonitrile (0.1 mL). This mixture was diluted with PBS buffer (0.9 mL). Next, minor-(E)-cyclooct-2-en-1-yl doxorubicin carbamate (38; 6.96×10^−6 g; 1.00×10^−8 mol) was added.

[10] = with tetrazine 7, c=25 μM, PBS, 20° C., 16 hr

In the case of CCCC(=O)Nc1ccc(-c2nnc(-c3ccc(F)cn3)nn2)nc1, the “Reactivity ratio (R = k2,TZ/k2,Ref)” value [1] is reported as 0.95.
In the case of c1cncc(-c2nnc(-c3cccnc3)nn2)c1, the “Reactivity ratio (R = k2,TZ/k2,Ref)” value [1] is reported as 0.19.
In the case of CCCC(=O)Nc1ccc(-c2nncnn2)nc1, the “Reactivity ratio (R = k2,TZ/k2,Ref)” value [1] is reported as 2.8.
In the case of c1cc(-c2nnc(-c3ccsc3)nn2)cs1, the “Reactivity ratio (R = k2,TZ/k2,Ref)” value [2] is reported as <0.01*.
For O=C(NCc1ccccc1)OC1/C=C/CCCCC1 (stereo not drawn) [drawing 104], the “rate contant k2” value [3] was 40 M⁻¹ s⁻¹ and the “reactivity ratio (R = k2,TC0/k2,Ref)” value [4] was 0.067.
For CCCNC(=O)c1ccc(-c2nnc(-c3ccccn3)nn2)nc1, the “Reactivity ratio (R = k2,TZ/k2,Ref)” value [1] was 1.76.
In the case of Nc1ccc(-c2nnc(-c3ccccn3)nn2)nc1, the “Reactivity ratio (R = k2,TZ/k2,Ref)” value [1] is reported as 0.4.
With O=C(NCc1ccccc1)OC1/C=C/CCCCC1 (stereo not drawn) [minor-32, (E)-cyclooct-2-en-1-yl benzylcarbamate] the release of benzylamine ([5]; with 3,6-Bis(2-aminophenyl)-1,2,4,5-tetrazine (9), DMSO-d6/D2O, 20° C., 24 hr) was “release of benzylamine”, the release of benzylamine ([5]; with 3,6-Bis(2-pyridinyl)-1,2,4,5-tetrazine (2), acetonitrile/water, 20° C., 24 hr) was “release of benzylamine” and the release of benzylamine ([5]; with 3,6-Bis(4-hydroxyphenyl)-1,2,4,5-tetrazine (11), acetonitrile/water, 20° C., 5 hr) was “release of benzylamine”. The release of benzylamine ([5]; with 3,6-Diphenyl-1,2,4,5-tetrazine, general procedure) was “release of benzylamine”, the release of benzylamine ([5]; with 6-H-3-(4-Aminomethylphenyl)-1,2,4,5-tetrazine, general procedure) was “release of benzylamine” and the release of benzylamine ([5]; with 6-Methyl-3-(4-butanamido-2-pyridinyl)-1,2,4,5-tetrazine, general procedure) was “release of benzylamine”. For the same compound, the release of benzylamine ([5]; with 6-Phenyl-3-(3-aminophenyl)-1,2,4,5-tetrazine, general procedure) was “release of benzylamine” and the release of benzylamine ([5]; with 6-Phenyl-3-(4-aminophenyl)-1,2,4,5-tetrazine, general procedure) was “release of benzylamine”.
In the case of FC(F)(F)c1ccc(-c2nnc(-c3ccc(C(F)(F)F)cn3)nn2)nc1, the “Reactivity ratio (R = k2,TZ/k2,Ref)” value [2] is reported as 5.3*.
With NCc1ccc(-c2nncnn2)cc1 the “Reactivity ratio (R = k2,TZ/k2,Ref)” value [1] was 0.77.
COc1cccc2c1C(=O)c1c(O)c3c(c(O)c1C2=O)C[C@@](O)(C(=O)CO)CC3OC1CC(NC(=O)OC2/C=C/CCCCC2)[C@H](O)C(C)O1 (stereo partly drawn) gave a half-life at 83 µM [6] greater than 20 days.
In the case of Cc1nnc(-c2ccccn2)nn1 [drawing 93], the “Reactivity ratio (R = k2,TZ/k2,Ref)” value [1] is reported as 0.25.
With c1cc(-c2nnc(-c3ccncc3)nn2)ccn1 the “Reactivity ratio (R = k2,TZ/k2,Ref)” value [1] was 0.83.
With c1cnc(-c2nnc(-c3cnccn3)nn2)cn1 the “Reactivity ratio (R = k2,TZ/k2,Ref)” value [1] was 1.5.
For Cc1cc(C)cc(NC(=O)OC2/C=C/CCCCC2)c1 (stereo not drawn) [drawing 105], the “rate contant k2” value [3] was 25.7 M⁻¹ s⁻¹.
For Cc1cc(C)cc(NC(=O)OC2/C=C/CCCCC2)c1 (stereo not drawn) [minor-33, (E)-cyclooct-2-en-1-yl (3,5-dimethylphenyl)carbamate], the “release of 3,5-dimethylaniline” value ([5]; with 3,6-Bis(2-aminophenyl)-1,2,4,5-tetrazine (9), acetonitrile/PBS, 20° C.) was “release of 3,5-dimethylaniline”, the “release of 3,5-dimethylaniline” value ([5]; with 3,6-Bis(4-hydroxyphenyl)-1,2,4,5-tetrazine (11), acetonitrile/PBS, 20° C.) was “release of 3,5-dimethylaniline” and the “release of 3,5-dimethylaniline” value ([5]; with 3,6-Diphenyl-1,2,4,5-tetrazine, acetonitrile/PBS, 20° C.) was “release of 3,5-dimethylaniline”. For the same compound, the “release of 3,5-dimethylaniline” value ([5]; with 3-(2-Pyridyl)-6-methyl-1,2,4,5-tetrazine (7), PBS, 20° C.) was “release of 3,5-dimethylaniline”.
In the case of Cc1cc(C)cc(NC(=O)OC2/C=C/CCCCC2)c1 (stereo not drawn) [drawing 106], the “rate contant k2” value [3] is reported as 0.15 M⁻¹ s⁻¹.
With c1c[nH]c(-c2nnc(-c3ncc[nH]3)nn2)n1 the “Reactivity ratio (R = k2,TZ/k2,Ref)” value [1] was 1.2.
In the case of Nc1ccccc1-c1nnc(-c2ccccc2N)nn1, the “Reactivity ratio (R = k2,TZ/k2,Ref)” value [2] is reported as <0.01*.
In the case of Nc1ccc(-c2nnc(-c3ccccc3)nn2)cc1, the “Reactivity ratio (R = k2,TZ/k2,Ref)” value [2] is reported as <0.01*.
For OC1CC/C=C/CCC1 (stereo not drawn), the “rate contant k2” value [3] was 577 M⁻¹ s⁻¹ and the “reactivity ratio (R = k2,TC0/k2,Ref)” value [4] was 1.
In the case of c1csc(-c2nnc(-c3cccs3)nn2)c1, the “Reactivity ratio (R = k2,TZ/k2,Ref)” value [2] is reported as <0.01*.
For CCCC(=O)Nc1ccc(-c2nnc(-c3ccc(C(F)(F)F)cn3)nn2)nc1, the “Reactivity ratio (R = k2,TZ/k2,Ref)” value [2] was 1.84*.
With CCCC(=O)Nc1ccc(-c2nnc(-c3ncccn3)nn2)nc1 the “Reactivity ratio (R = k2,TZ/k2,Ref)” value [1] was 2.7.
With c1ccc(-c2nnc(-c3ccccn3)nn2)nc1 the “Reactivity ratio (R = k2,TZ/k2,Ref)” value [1] was 1.17.
With O=C(NCc1ccccc1)OC1/C=C/CCCCC1 (stereo not drawn) [drawing 103] the “rate contant k2” value [3] was 0.26 M⁻¹ s⁻¹.
For O=C1CCCC(=O)N1c1ccc(-c2nnc(-c3ccccn3)nn2)nc1, the “Reactivity ratio (R = k2,TZ/k2,Ref)” value [1] was 1.6.
For CCCCNC(=O)c1ccc(-c2nnc(-c3ncccn3)nn2)nc1, the half-life at 83 µM [7] was 25.2 min and the “Reactivity ratio (R = k2,TZ/k2,Ref)” value [1] was 2.
In the case of Cc1nnc(-c2ccccn2)nn1 [Tetrazine 7, 3-(2-pyridyl)-6-methyl-1,2,4,5-tetrazine], the IC50 ([8]; Homo sapiens, A-431, 72 h) is reported as greater than 100000 nM.
For Nc1ccc(-c2nnc(-c3ccc(N)cc3)nn2)cc1, the “Reactivity ratio (R = k2,TZ/k2,Ref)” value [2] was <0.01*.
For COc1cccc2c1C(=O)c1c(O)c3c(c(O)c1C2=O)C[C@@](O)(C(=O)CO)C[C@@H]3O[C@H]1C[C@H](NC(=O)OC2/C=C/CCCCC2)[C@H](O)[C@H](C)O1 (stereo partly drawn) [major-38, major-(E)-cyclooct-2-en-1-yl doxorubicin carbamate], the “conversion of the DA-reaction” value [9, 10] was 40% and the “release of doxorubicin (yield)” value [9, 10] was 20%.
In the case of Fc1ccc(-c2nnc(-c3ccc(F)cn3)nn2)nc1, the “Reactivity ratio (R = k2,TZ/k2,Ref)” value [1] is reported as 1.07.
For CCCC(=O)Nc1ccc(-c2nnc(C)nn2)nc1, the “Reactivity ratio (R = k2,TZ/k2,Ref)” value [1] was 0.18.
In the case of CC(=O)Nc1ccc(-c2nnc(-c3ccccn3)nn2)nc1, the “Reactivity ratio (R = k2,TZ/k2,Ref)” value [1] is reported as 1.
With Oc1ccc(-c2nnc(-c3ccc(O)cc3)nn2)cc1 the “Reactivity ratio (R = k2,TZ/k2,Ref)” value [2] was <0.01*.
In the case of c1ccc(-c2nnc(-c3ccccc3)nn2)cc1, the “Reactivity ratio (R = k2,TZ/k2,Ref)” value [2] is reported as <0.01*.
For COc1cccc2c1C(=O)c1c(O)c3c(c(O)c1C2=O)C[C@@](O)(C(=O)CO)C[C@@H]3O[C@H]1C[C@H](N)[C@H](O)[C@H](C)O1 [Dox, Doxorubicin, reference compound], the IC50 ([8]; Homo sapiens, A-431, 72 h) was 20 ± 2 nM.
In the case of COc1cccc2c1C(=O)c1c(O)c3c(c(O)c1C2=O)C[C@@](O)(C(=O)CO)C[C@@H]3O[C@H]1C[C@H](NC(=O)OC2/C=C/CCCCC2)[C@H](O)[C@H](C)O1 (stereo partly drawn) [minor-38, minor-(E)-cyclooct-2-en-1-yl doxorubicin carbamate], the “release of doxorubicin (yield)” value ([9]; with tetrazine 7, c=25 μM, PBS, 20° C., 4 hr) is reported as 69%, the “release of doxorubicin at lower concentrations” value ([9]; with tetrazine 7, concentrations of 2.5 and 1.0 μM) is reported as “Comparable results” and the “release of doxorubicin (yield)” value ([9]; with tetrazine 9, acetonitrile/PBS, 20° C., 18 hr) is reported as 90%. The IC50 ([8]; A431, 72 hr, + tetrazine 7 (10 μM), constant amount) was 278 ± 22 nM, the IC50 ([8]; A431, 72 hr, + tetrazine 7 (1.5 eq.), serial dilutions) was 137 ± 12 nM and the IC50 ([8]; A431 cell line, 72 hr, MTT, compound alone) was 3020 ± 486 nM.
For c1ccc(-c2nncnn2)nc1, the “Reactivity ratio (R = k2,TZ/k2,Ref)” value [1] was 3.06.
With c1c[nH]c(-c2nnc(-c3ccc[nH]3)nn2)c1 the “Reactivity ratio (R = k2,TZ/k2,Ref)” value [2] was <0.01*.
For Nc1cccc(-c2nnc(-c3ccccc3)nn2)c1, the “Reactivity ratio (R = k2,TZ/k2,Ref)” value [2] was <0.01*.
